Where two headings read alike, the source gives them in different places.
What was measured:
ER = assay: Assay system I: transcriptional activation of an ER-dependent reporter gene; assay type: cell-based; conditions: in vitro
Procedure: The problem of the invention is achieved by a method of an in vitro screening for a test substance (ligand) involving selecting and detecting by means of at least two assay systems comprising the following steps: • (i) in a first cellular or tissue assay system selecting the ligand having transcriptional activity • which is mediated by activation of ER and which is measured by detecting potency in the cellular or tissue assay system comprising ER and an ER-driven reporter gene, • whereby, in the first assay system, the ligand activates the potency with an EC50(ER) (half-maximally effective ligand concentration) lower than or equal to 10 nmol/l, and • detecting the activation of the transcription; and • (ii) in a second cell-free or enzymatic assay system, selecting the physical-chemical interaction (recruitment) of SRC-1 and fragments thereof, and of the ER • which is measured by detecting the potency of this interaction in the cell-free or enzymatic system • wherein the ligand activates the ER and induces interaction with the co-present SRC-1 and fragments thereof in the second assay system with a EC50(ER+SRC) higher than or equal to 100 nmol/l, and detecting the potency of the physical-chemical interaction of SRC-1 and fragments thereof and of ER.
The assay employed in this Example only used compounds which are characterized by estrogenic activity. The assays for finding the estrogenic compounds have already been developed and published. These assays are standard assays well known to the person skilled in the art.
(§1) Using the assay described in Example 2, we selected the compound 3′ 15β-dihydrocycloprop[14,15]estra-1,3,5(10),8-tetraene-3,17α-diol [iii] for further examination of its neurotropic and systemic estrogenic effects.

ER and SRC-1 protein = assay: Assay system II: SRC-1 recruitment by the activated ER (fluorescence resonance energy transfer, cell-free); assay type: biochemical; conditions: for Assay system II: First signs of significant interaction between ER and SRC-1 protein (dose in M): 175 ng his-tagged SRC-1 per well, significant = more than 2 times standard deviation from baseline; for Ratio between values measured in assay systems II and I: assay II dose / assay I EC50
Description: Recruitment: Recruitment of SRC-1 relates to the comparison of the degrees of association by protein-protein interaction between co-present ER and SRC-1 in the absence or presence of an ER-agonist. Numerically, recruitment is defined by the molar concentration of ER-agonist which is required for the occurrence of a significant (more than 2 times standard deviation from baseline) protein-protein interaction between co-expressed ER and SRC-1 in a test system. The baseline is defined by the interaction measured in an identical test system to which no […] has been added.
The assay used in the present Example for investigating the recruitment of ER and co-activator SRC-1 is performed according to the publication of Gauchao ZHOH et al. (1998) Nuclear receptors have distinct affinities for co-activators: Characterization by fluorescence resonance energy transfer, Mol Endo, Vol 12, pp 1594–1604 especially on Page 1602. Furthermore, the assaysystem is described in WO/18124 from Cummings et al. Instead of the euriopium cryptate, mentioned in the International Application, europium chelate—100 ng of euriopium labeled anti-GST-antibody per well—is used in the assays. The labeled antibody was delivered from Wallac, now Perkin Elmer Lifesciences. (Eu-W1024 labeled anti-GST-Antibody for Lance Assays, Part Number AD 0065)
The SRC-1 is used at a concentration of 175 ng his-tagged SRC-1 per well. SRC-1 is present in every well of this assay system.

[1] = tested on: ovariectomized female rats; assay: Active avoidance behavior (cognitive performance) in ovariectomized female rats; assay type: in vivo, rat; conditions: subcutaneous, seven days, compared with 17β-estradiol
Procedure: (§2) Different doses of the compound of interest and the reference 17β-estradiol were administered subcutaneously in ovariectomized female rats for seven consecutive days. The effect of the compounds on the cognitive performance of experimental animals was evaluated by monitoring the acquisition, consolidation and retrieval of active avoidance behavior. Upon sacrifice, morphometric assessment was made of estrogen-sensitive organs (uterus, thymus, adrenal glands). Neurochemical effects were assessed by quantification of the transcription of ER-induced CNS-specific genes in different brain areas, endowed with different amounts of SRC-1.

ERα = target: T1, ERα (Homo sapiens, UniProt P03372); assay: Relative binding affinity to ERα; conditions: relative to 17β-estradiol
T1 sequence (P03372 1-595): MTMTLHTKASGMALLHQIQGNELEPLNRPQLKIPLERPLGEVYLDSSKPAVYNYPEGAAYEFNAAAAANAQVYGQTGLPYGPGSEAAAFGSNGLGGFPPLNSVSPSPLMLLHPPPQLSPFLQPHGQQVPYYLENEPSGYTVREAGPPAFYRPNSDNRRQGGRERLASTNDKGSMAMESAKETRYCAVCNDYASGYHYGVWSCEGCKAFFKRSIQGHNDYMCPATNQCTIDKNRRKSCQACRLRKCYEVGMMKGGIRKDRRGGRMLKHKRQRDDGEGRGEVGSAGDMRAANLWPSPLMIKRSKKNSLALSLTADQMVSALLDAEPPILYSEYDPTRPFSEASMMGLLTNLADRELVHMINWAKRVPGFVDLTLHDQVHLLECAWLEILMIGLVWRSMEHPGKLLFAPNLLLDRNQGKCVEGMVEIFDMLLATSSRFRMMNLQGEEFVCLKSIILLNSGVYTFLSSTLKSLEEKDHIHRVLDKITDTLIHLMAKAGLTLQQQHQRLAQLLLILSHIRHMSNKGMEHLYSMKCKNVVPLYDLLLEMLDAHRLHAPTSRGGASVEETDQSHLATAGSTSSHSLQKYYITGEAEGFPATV
Description: as §1

ERβ = ERβ (Homo sapiens, UniProt Q92731); assay: Relative binding affinity to ERβ; conditions: relative to 17β-estradiol
Description: as §1

oxytocin receptors = assay: Estrogen-dependent expression of oxytocin receptors in ventromedial nucleus of ovariectomized female rats; assay type: in vivo, rat; conditions: subcutaneous, seven days, compared with 17β-estradiol
Procedure: as §2

[2] = tested on: peripheral estrogen-target organs (uterus, thymus, adrenal glands); assay: Morphometric assessment of estrogen-sensitive organs in ovariectomized female rats; assay type: in vivo, rat; conditions: subcutaneous
Procedure: as §2

bcl-2 = assay: Transcription of estrogen-regulated gene bcl-2 in cerebral cortex of ovariectomized female rats; assay type: in vivo, rat; conditions: subcutaneous, seven days, equal dose comparison with 17β-estradiol
Procedure: as §2

[3] = read-out: Assay system I: Transcriptional activation of an ER-dependent reporter gene (EC50 in M) (converted)

Sequence of ERβ (Q92731 whole entry, species assumed): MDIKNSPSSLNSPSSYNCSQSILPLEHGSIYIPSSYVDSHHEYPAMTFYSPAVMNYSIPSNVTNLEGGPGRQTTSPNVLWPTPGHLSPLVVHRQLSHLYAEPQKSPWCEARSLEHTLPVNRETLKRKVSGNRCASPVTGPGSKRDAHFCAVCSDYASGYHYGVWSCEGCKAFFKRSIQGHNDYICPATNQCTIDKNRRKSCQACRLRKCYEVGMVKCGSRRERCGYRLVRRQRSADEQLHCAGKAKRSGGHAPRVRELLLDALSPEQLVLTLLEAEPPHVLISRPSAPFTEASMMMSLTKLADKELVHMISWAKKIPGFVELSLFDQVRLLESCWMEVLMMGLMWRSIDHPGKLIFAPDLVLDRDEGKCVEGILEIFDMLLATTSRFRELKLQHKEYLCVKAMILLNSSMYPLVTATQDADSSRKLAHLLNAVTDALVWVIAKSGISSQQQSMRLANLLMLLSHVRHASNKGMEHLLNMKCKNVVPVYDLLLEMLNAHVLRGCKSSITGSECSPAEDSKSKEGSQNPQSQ

| Structure (SMILES) | EC50 (ER; read-out: Assay system I: Transcriptional activation of an ER-dependent reporter gene (EC50 in M)) [nM] | Assay system II: First signs of significant interaction between ER and SRC-1 protein (dose in M) (ER and SRC-1 protein) | Ratio between values measured in assay systems II and I (ER and SRC-1 protein) | EC50 (ER; listed as 17β-estradiol, read-out: Assay system I: Transcriptional activation of an ER-dependent reporter gene (EC50 in M) (converted)) [nM] | EC50 (ER; [3]) [nM] | recruitment of SRC-1 upon ER binding (in words) (ER and SRC-1 protein) | behavioral (cognitive) effect, retention of newly acquired active avoidance behavior [1] | relative affinity to ERα, of that of 17β-estradiol (ERα) | relative affinity to ERβ, of that of 17β-estradiol (ERβ) | induction of estrogen-dependent expression of oxytocin receptors in the ventromedial nucleus (VMN) (oxytocin receptors) | capacity to induce estrogen-like effects in peripheral estrogen-target organs (uterus, thymus, adrenal glands) ([2]; seven consecutive days, compared with 17β-estradiol) | estrogen-dependent changes in peripheral estrogen-sensitive organs at behaviorally effective treatment ([2]; seven days) | stimulation of transcription of antiapoptotic estrogen-regulated gene bcl-2 in the cerebral cortex (bcl-2) |
| --- | --- | --- | --- | --- | --- | --- | --- | --- | --- | --- | --- | --- | --- |
| CC12CCC3=C(CCc4cc(O)ccc43)C13CC3CC2O (stereo not drawn) [[iii], 3′,15β-dihydrocycloprop[14,15]-estra-1,3,5(10),8-tetraene-3,17α-diol] |  | 10^−7 M | 100.0 |  | 1 |  | indistinguishable from that of 17β-estradiol | 25–30 per cent | 25–30 per cent | to a significantly lower degree than 17β-estradiol | several times lower than that of the natural estrogen 17β-estradiol | not associated with estrogen-dependent changes in peripheral estrogen-sensitive organs | to a higher degree than does 17β-estradiol given at an equal dose |
| C=CCC1CC(O)C2(C)CCC3c4ccc(O)cc4CCC3C12 (stereo not drawn) [[iv], 15β-allyl-estra-1,3,5,(10)-triene-3,17β-diol] |  | 10^−7 M | 25.0 |  | 4 |  |  |  |  |  |  |  |  |
| CCCC1CC(O)C2(C)CCC3c4ccc(O)cc4CCC3C12 (stereo not drawn) [[v], 15β-propyl-estra-1,3,5,(10)-triene-3,17β-diol] |  | 10^−7 M | 10.0 |  | 10 |  |  |  |  |  |  |  |  |
